Data set [1] has as its system L-1210/dach murine leukemia cells. Kind of data set: In vitro cytotoxic activity (ID50), L-1210/dach. The format is cell-based. Particulars: Table II; solvent H2O, 10% DMSO or DMF per complex.
Description: The tests were carried out in vitro according to the procedures outlined by M. P. Hacker et al in Cancer Research, 1985, 45, 4748.
The subject of data set [2] is L-1210/DDP murine leukemia cells. Kind of data set: In vitro cytotoxic activity (ID50), L-1210/DDP (resistant to cisplatin). The data set is classed as cell-based. To be noted: Table II; solvent H2O, 10% DMSO or DMF per complex.
For data set [3], the system named is L-1210/0 murine leukemia cells. Kind of data set: In vitro cytotoxic activity (ID50, 50% inhibition of cell growth), L-1210/0. The format is cell-based. Particulars: Table II; solvent H2O, 10% DMSO or DMF per complex.
The conditions of data set [4]: treatment of patients; cited from earlier work.
Data set [5] has as its system tumors. To be noted: cited from earlier work.
Data set [6] relates to L-1210 murine leukemia cell lines.
Description: The biological assays were performed as previously described by method of Hacker et al. Cancer Research, 1985, 45, 4748. Complexes were all dissolved in 10% DMSO.
Data set [7] has as its system L-1210/0 murine leukemia cells. Kind of data set: In vitro cytotoxic activity (ID50, 50% inhibition of cell growth), L-1210/0. The format is cell-based. To be noted: Table III; dissolved in 10% DMSO; read-out: ID50 L-1210/O. The source says: (§1) where py=pyridine; quin=quinoline; isoquin=isoquinoline; Meim=methylimidazole. […] Complexes were all dissolved in 10% DMSO.

For data set [8], the system named is L-1210/DDP murine leukemia cells. Kind of data set: In vitro cytotoxic activity (ID50), L-1210/DDP (resistant to cisplatin). To be noted: Table III; dissolved in 10% DMSO. The data set is classed as cell-based.
Source text: as §1

Data set [9] relates to DNA. To be noted: background, cited from earlier work.

Where two headings read alike, the source gives them in different places.

Take `N.N.NCCCCN.[Cl][Pt][Cl].[Cl][Pt][Cl]` [BisPt4, [{cis-PtCl2 (NH3)}2 (H2 N(CH2)4 NH2)]]: the IC50 in data set [1] is 336 nM; in data set [2] it was 2190 nM; in data set [3], 280 nM.
For the molecule `N.N.NCCCCN.O=C1CC(=O)[O][Pt][O]1.O=C1CC(=O)[O][Pt][O]1` [BisPtmal, [{cis-Pt(mal)(NH3)}2 (H2 N(CH2)4 NH2)]], the IC50 came to 2550 nM in data set [1], 5030 nM in data set [2] and 930 nM in data set [3].
On to `N.N.O=C([O-])C1(C(=O)[O-])CCC1.[Pt+2]` [Carboplatin, [Pt(NH3)2 (CBDCA)]], for which the Nephrotoxicity result in [4] is on record as “marked reduction in the nephrotoxic effects”. In data set [5] (background), the “Antitumor activity / cytotoxic effect” value was “effective against the same spectrum of carcinomas as cisplatin”.
Turning to `N.N.N.N.NCCCCN.[Cl-].[Cl-].[Cl][Pt+].[Cl][Pt+]` [Example 1, [{trans-PtCl(NH3)2}2 H2 N(CH2)4 NH2]Cl2], the IC50 in [1] stood at 5400 nM; in data set [2], 900 nM; in [3], 3400 nM. For the same molecule, the “Cytotoxic activity (in words)” value in [6] was “highly active cytotoxic agents”.
`N.N.NCCCCN.[Cl][Pt][Cl].[Cl][Pt][Cl]` [Example 3, [{cis-PtCl2 (NH3)}H2 N(CH2)4 NH2 {trans-PtCl2 (NH3)}]]: the IC50 in data set [1] is 2600 nM; in data set [2], 3360 nM; in [3], 760 nM.
For the molecule `N.N.[Cl][Pt][Cl]` [NH3 NH3 cis, cis-[PtCl2 (NH3)2]], the IC50 was 200 nM in [7] and 8000 nM in data set [8].
Consider `N.N.[Cl][Pt+2][Cl]` [NH3 NH3 trans, trans-[PtCl2 (NH3)2]], for which the IC50 in [7] is above 20000 nM; in data set [8], above 50000 nM. Besides, the “Formation of 1,2-intrastrand crosslink” value in data set [9] is “cannot form the 1,2-intrastrand crosslink”. In addition, the DNA binding entry is reported as “do bind to DNA” in [9] (listed as trans-DDP) and “bind avidly to the DNA molecule” in data set [9] (listed as trans-[Pt(NH3)2 Cl2 ]). Moreover, the “Antitumor activity / cytotoxic effect” value is listed as “do not exhibit antitumor activity” in [5] (background, listed as trans-DDP) and “no cytotoxic effect” in [5] (background, listed as trans-[Pt(NH3)2 Cl2 ]).
As to `N.N.N.[Cl][Pt+]` [[Pt(NH3)3 Cl]^+], the DNA binding result was “bind avidly to the DNA molecule” in data set [9] and “do bind to DNA” in [9] (listed as [(Pt(NH3)3 Cl]^+)). In addition, the “Formation of 1,2-intrastrand crosslink” value in data set [9] is given as “cannot form the 1,2-intrastrand crosslink”. Moreover, the “Antitumor activity / cytotoxic effect” value was “no cytotoxic effect” in data set [5] (background) and “do not exhibit antitumor activity” in data set [5] (background, listed as [(Pt(NH3)3 Cl]^+)).
`Cl.Cl.[Pt].c1ccncc1.c1ccncc1` [py py cis]: the values for the IC50 in [7] and in data set [8] were 8960 nM and 12500 nM, respectively.
On to `[Cl][Pt][Cl].c1ccncc1.c1ccncc1` [py py trans, trans-[PtCl2 (pyridine)2]], for which the IC50 in [7] is 610 nM; in data set [8], 800 nM. Further, the “Cytotoxic activity (in words)” value in [6] was “as cytotoxic as cisplatin”. In addition, the “Cross-resistance with the parent cisplatin” value in data set [6] (Table III in vitro data) is “non-cross-resistant with the parent cisplatin”.
On to [Pt(dien)Cl]Cl, for which the IC50 in data set [1], in [2] and in data set [3] was above 20000 nM in each case. Moreover, the DNA binding result in data set [9] is on record as “do bind to DNA”. The “Cytotoxic activity (in words)” value in data set [6] was “totally inactive”. For the same molecule, the “Antitumor activity / cytotoxic effect” value in [5] is “do not exhibit antitumor activity”.
With “[PtCl2 (iso-quinoline)(DMSO)] [iso-quin DMSO trans]”, the IC50 worked out at 2750 nM in data set [7] and 1170 nM in data set [8].
On the same counts, the results for “[PtCl2 (quinoline)(DMSO)] [quin DMSO trans]” are 400 nM and 1570 nM.
On the same counts, the results for “trans-[PtCl2 (pyridine)(DMSO)] [py DMSO trans]” are 6620 nM and 5670 nM.

The record behind these values is US5770591A, “Bis-platinum complexes as chemotherapeutic agents” (The University of Vermont and State Agricultural College, priority 1994, dated 1998).
